Test results taken from US20060276523A1 (priority 2003, published 2006).
Read-outs that look alike come from different tables or passages of the source.

Columns and labels:
[1] = tested on: isolated rabbit thoracic aorta preparations; assay: Studies on vascular tone: vasorelaxation of noradrenaline-precontracted aortic rings; format: cell-based; conditions: rabbit aortic rings precontracted with noradrenaline 1 μM; for IC50: functional endothelium, read-out: IC50 (μM) ± sem (vasorelaxation)
Description: The ability of the nitroderivatives of ARB to induce vasorelaxation in comparison to native ARB, was tested in vitro in isolated rabbit thoracic aorta preparations (Wanstall J. C. et al., Br. J. Pharmacol., 134:463-472, 2001). Male New Zealand rabbits were anaesthetized with thiopental-Na (50 mg/kg, iv), sacrificed by exsanguinations and then the thorax was opened and the aorta dissected. Aortic ring preparations (4 mm in length) were set up in physiological salt solution (PSS) at 37° C. in small organ chambers (5 ml). The composition of PSS was (mM): NaCl 130, NaHCO3 14.9, KH2PO4 1.2, MgSO4 1.2, HEPES 10, CaCl2, ascorbic acid […] and glucose 1.1 (95% O2/5% CO2; pH 7.4). Each ring was mounted under 2 g passive tension. Isometric tension was recorded with a Grass transducer (Grass FT03) attached to a BIOPAC MP150 System. Preparations were allowed to equilibrate for 1 h, and then contracted submaximally with noradrenaline (NA, 1 μM) and, when the contraction was stable, acetylcholine (ACh, 10 μM) was added. A relaxant response to ACh indicated the presence of a functional endothelium. […] When a stable precontraction was reached, a cumulative concentration-response curve to either of the vasorelaxant agents was obtained in the presence of a functional endothelium. Each arterial ring was exposed to only one combination of inhibitor and vasorelaxant. Moreover, the effect of the soluble guanylyl cyclase inhibitor ODQ (1-H-(1,2,4)-oxadiazol(4,3-a)quinoxalin-1-one) on vasorelaxation elicited by the compounds was examined preincubating the aortic rings with ODQ (10 μM) for 20 min.
Responses to relaxing agents are expressed as a percentage of residual contraction and plotted against concentration of test compound. IC50 values (where IC50 is the concentration producing 50% of the maximum relaxation to the test compound) were interpolated from these plots.
During the experimental period, the plateau obtained with NA was stable without significant spontaneous loss of contraction in the aortic rings.

[2] = tested on: RAW 264.7 macrophages; assay: Inhibition of LPS-induced nitrite accumulation (Griess reaction); format: cell-based; conditions: for Nitrite (% vs vehicle): 25 μM, LPS 1 μg/ml for 16 hrs, RAW 264.7
Description: The experiments were performed using RAW 264.7 monocyte macrophage cell line. Cells were stimulated in the presence of lipopolysaccharide (LPS) (1 μg/ml) for 16 hrs. At the end of the incubation, the culture media were collected and analyzed for nitrite content using a standard Griess reaction.
The results reported in Table 2 are expressed as % of nitrite content for each treatment vs. LPS-treated samples.

[3] = tested on: human platelets; assay: Antiplatelet activity: U46619-induced platelet aggregation in platelet rich plasma (Born method); format: cell-based; conditions: 2 min, human PRP, aggregating agent U46619, incubation 2 min at 37° C., read-out: Platelet aggregation (PRP) (incubation time: 2 min) IC50
Description: Aggregating agent used was U46619, a TxA2 analog, based on the evidence that this agonist is sensitive to the effects of nitric oxide. Compounds were incubated at 37° C. for 2 min before adding the aggregating agent. Aggregation was followed for 5 min and the maximal amplitude (cm) was measured. DMSO (0.05% final concentration) was used as vehicle. Compounds were tested at concentrations ranging from 10 to 100 μM.

[4] = tested on: spontaneously hypertensive rats (SHRs); assay: Antihypertensive activity in conscious spontaneously hypertensive rats (telemetry); format: in vivo; conditions: SHR; for Systolic blood pressure (mmHg), 30 min: 30 min after dosing; for Systolic blood pressure (mmHg), 30 min / Systolic blood pressure (mmHg), 12 hrs / Systolic blood pressure (mmHg), 24 hrs: losartan 10 mg/kg po, EX. 2 12 mg/kg po (equimolar); for Systolic blood pressure (mmHg), 12 hrs: 12 hrs after dosing; for Systolic blood pressure (mmHg), 24 hrs: 24 hrs after dosing; for Systolic blood pressure (mmHg), Baseline: groups losartan 10 mg/kg po, EX. 2 12 mg/kg po
Excerpt: Systolic blood pressure (SBP) and heart rate were monitored by telemetry at different time points after dosing.

Row | IC50 ([1]; Oryctolagus cuniculus) [µM] | IC50 [3] [µM] | SMILES | IC50 [1] [µM] | Nitrite (% vs vehicle) [2] [% vs vehicle] | inhibition of accumulation of nitrites induced by LPS (in words) ([2]; RAW 264.7, LPS) | relaxation of aortic rings (in words) [1] | Systolic blood pressure (mmHg), 30 min ([4]; daily oral dose for 3 days) [mmHg] | Systolic blood pressure (mmHg), 12 hrs ([4]; daily oral dose for 3 days) [mmHg] | Systolic blood pressure (mmHg), 24 hrs ([4]; daily oral dose for 3 days) [mmHg] | Systolic blood pressure (mmHg), Baseline [4] [mmHg] | reduction in blood pressure levels over the treatment period (in words) ([4]; daily oral dose for 3 days)
1 | – | – | CCCCc1nc(Cl)c(COC(=O)CCCCCO[N+](=O)[O-])n1Cc1ccc(-c2ccccc2-c2nnn[nH]2)cc1 [EX. 5, 2-butyl-4-chloro-1-[[2′-(H-tetrazol-5-yl)[1,1′-biphenyl]-4-yl]methyl]-1H-imidazole-5-methanol 6-nitrooxyhexanoic acid ester] | 18 ± 6 | – | – | – | – | – | – | – | –
2 | 54 ± 16 | – | CCCCc1nc(Cl)c(COC(=O)c2cccc(CO[N+](=O)[O-])c2)n1Cc1ccc(-c2ccccc2-c2nn[nH]n2)cc1 [EX. 4, 2-butyl-4-chloro-1-[[2′-(1H-tetrazol-5-yl)[1,1′-biphenyl]-4-yl]methyl]-1H-imidazole-5-methanol 3-(nitrooxymethyl) benzoic acid ester] | – | 61 ± 3 | able to inhibit the accumulation of nitrites induced by LPS | – | – | – | – | – | –
3 | 33 ± 12 | 5 | CCCCc1nc(Cl)c(COC(=O)c2ccc(CO[N+](=O)[O-])cc2)n1Cc1ccc(-c2ccccc2-c2nn[nH]n2)cc1 [EX. 1, 2-butyl-4-chloro-1-[[2′-(1H-tetrazol-5-yl)[1,1′-biphenyl]-4-yl]methyl]-1H-imidazole-5-methanol 4-(nitrooxymethyl) benzoic acid ester] | – | – | – | – | – | – | – | – | –
4 | > 100 | – | CCCCc1nc(Cl)c(CO)n1Cc1ccc(-c2ccccc2-c2nn[nH]n2)cc1 [Losartan, reference compound] | – | 99 ± 9 | – | did not produce relaxation at any of the concentration tested | 133 | 135 | 136 | 143 | –
5 | 15 ± 3 | 11 | CCCCc1nc(Cl)c(COC(=O)CCCO[N+](=O)[O-])n1Cc1ccc(-c2ccccc2-c2nn[nH]n2)cc1 [EX. 2, 2-butyl-4-chloro-1-[[2′-(1H-tetrazol-5-yl)[1,1′-biphenyl]-4-yl]methyl]-1H-imidazole-5-methanol 4-nitrooxybutanoic acid ester] | – | – | – | – | 115 | 126 | 128 | 143 | able to induce a clear reduction in blood pressure levels
